Reference: PubChem BioAssay (NCI)
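Five compound concentrations were applied to cells in 96-well plates for 48 hours; endpoints were derived by simple linear interpolation of the resulting dose-response curve. GI50 marks 50% less growth. TGI marks complete inhibition of growth.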

How the values were obtained:
Experiment in all cases: NCI anticancer screen, dose series, 48 h
UO-31 renal = system: UO-31 renal
MDA-MB-231 breast = system: MDA-MB-231 breast
HOP-92 NSCLC = system: HOP-92 NSCLC
RXF 393 renal = system: RXF 393 renal
SR leukemia = system: SR leukemia
HCC-2998 colon = system: HCC-2998 colon
BT-549 breast = system: BT-549 breast
SF-295 CNS = system: SF-295 CNS
SK-MEL-28 melanoma = system: SK-MEL-28 melanoma
OVCAR-5 ovarian = system: OVCAR-5 ovarian
A549 NSCLC = system: A549 NSCLC
NCI/ADR-RES ovarian = system: NCI/ADR-RES ovarian
SK-OV-3 ovarian = system: SK-OV-3 ovarian
K-562 leukemia = system: K-562 leukemia
SK-MEL-5 melanoma = system: SK-MEL-5 melanoma
UACC-257 melanoma = system: UACC-257 melanoma
M14 melanoma = system: M14 melanoma
NCI-H23 lung = system: NCI-H23 lung
IGROV1 ovarian = system: IGROV1 ovarian
HT29 colon = system: HT29 colon
SNB-75 CNS = system: SNB-75 CNS
OVCAR-8 ovarian = system: OVCAR-8 ovarian
OVCAR-3 ovarian = system: OVCAR-3 ovarian
UACC-62 melanoma = system: UACC-62 melanoma
NCI-H522 lung = system: NCI-H522 lung
SN12C renal = system: SN12C renal
A498 renal = system: A498 renal
MOLT-4 leukemia = system: MOLT-4 leukemia
RPMI-8226 leukemia = system: RPMI-8226 leukemia
SW-620 colon = system: SW-620 colon
NCI-H460 lung = system: NCI-H460 lung
SF-268 CNS = system: SF-268 CNS
PC-3 prostate = system: PC-3 prostate
DU-145 prostate = system: DU-145 prostate
LOX IMVI melanoma = system: LOX IMVI melanoma
TK-10 renal = system: TK-10 renal
T-47D breast = system: T-47D breast
CCRF-CEM leukemia = system: CCRF-CEM leukemia
NCI-H226 lung = system: NCI-H226 lung
COLO 205 colon = system: COLO 205 colon
MCF7 breast = system: MCF7 breast
SNB-19 CNS = system: SNB-19 CNS
HS 578T breast = system: HS 578T breast
CAKI-1 renal = system: CAKI-1 renal
HL-60(TB) leukemia = system: HL-60(TB) leukemia
HCT-15 colon = system: HCT-15 colon
KM12 colon = system: KM12 colon
ACHN renal = system: ACHN renal
EKVX NSCLC = system: EKVX NSCLC
OVCAR-4 ovarian = system: OVCAR-4 ovarian
SF-539 CNS = system: SF-539 CNS
786-0 renal = system: 786-0 renal
MDA-MB-435 = system: MDA-MB-435
SK-MEL-2 melanoma = system: SK-MEL-2 melanoma
HCT-116 colon = system: HCT-116 colon
U251 CNS = system: U251 CNS
HOP-62 NSCLC = system: HOP-62 NSCLC

## Cc1sc2ncn(Cc3ccc(Cl)c(Cl)c3)c(=O)c2c1C
UO-31 renal
  GI50: 31.4 µM
  TGI: > 100 µM
MDA-MB-231 breast
  GI50: 24.7 µM
  TGI: 77.9 µM
HOP-92 NSCLC
  GI50: 18.4 µM
  TGI: 73.7 µM
RXF 393 renal
  GI50: > 100 µM
  TGI: > 100 µM
SR leukemia
  GI50: 29.8 µM
  TGI: > 100 µM
HCC-2998 colon
  GI50: 7.39 µM
  TGI: 30.1 µM
BT-549 breast
  GI50: 58.9 µM
  TGI: > 100 µM
SF-295 CNS
  GI50: 3.85 µM
  TGI: 22.7 µM
SK-MEL-28 melanoma
  GI50: 77.9 µM
  TGI: > 100 µM
OVCAR-5 ovarian
  GI50: 21.6 µM
  TGI: 79.7 µM
A549 NSCLC
  GI50: 31.3 µM
  TGI: > 100 µM
NCI/ADR-RES ovarian
  GI50: 27.5 µM
  TGI: > 100 µM
SK-OV-3 ovarian
  GI50: 46.8 µM
  TGI: > 100 µM
K-562 leukemia
  GI50: 5.4 µM
  TGI: > 100 µM
SK-MEL-5 melanoma
  GI50: 54.4 µM
  TGI: > 100 µM
UACC-257 melanoma
  GI50: 78.8 µM
  TGI: > 100 µM
M14 melanoma
  GI50: 24.4 µM
  TGI: 64 µM
NCI-H23 lung
  GI50: 32.5 µM
  TGI: > 100 µM
IGROV1 ovarian
  GI50: 9.28 µM
  TGI: 42.8 µM
HT29 colon
  GI50: 77.7 µM
  TGI: > 100 µM
SNB-75 CNS
  GI50: 29.3 µM
  TGI: > 100 µM
OVCAR-8 ovarian
  GI50: 50.8 µM
  TGI: > 100 µM
OVCAR-3 ovarian
  GI50: 8.04 µM
  TGI: 38.3 µM
UACC-62 melanoma
  GI50: 13.2 µM
  TGI: > 100 µM
NCI-H522 lung
  GI50: 13.1 µM
  TGI: 73.9 µM
SN12C renal
  GI50: 20.5 µM
  TGI: > 100 µM
A498 renal
  GI50: 35.7 µM
  TGI: > 100 µM
MOLT-4 leukemia
  GI50: 79.3 µM
  TGI: > 100 µM
RPMI-8226 leukemia
  GI50: 12.2 µM
  TGI: > 100 µM
SW-620 colon
  GI50: 59.8 µM
  TGI: > 100 µM
NCI-H460 lung
  GI50: 51.5 µM
  TGI: > 100 µM
SF-268 CNS
  GI50: 25.5 µM
  TGI: > 100 µM
PC-3 prostate
  GI50: 20.1 µM
  TGI: > 100 µM
DU-145 prostate
  GI50: 44.3 µM
  TGI: > 100 µM
LOX IMVI melanoma
  GI50: 25.8 µM
  TGI: > 100 µM
TK-10 renal
  GI50: 1.81 µM
  TGI: 7.91 µM
T-47D breast
  GI50: 24.8 µM
  TGI: > 100 µM
CCRF-CEM leukemia
  GI50: 27.7 µM
  TGI: > 100 µM
NCI-H226 lung
  GI50: > 100 µM
  TGI: > 100 µM
COLO 205 colon
  GI50: 63.2 µM
  TGI: > 100 µM
MCF7 breast
  GI50: 25.6 µM
  TGI: > 100 µM
SNB-19 CNS
  GI50: 38 µM
  TGI: > 100 µM
HS 578T breast
  GI50: 35.2 µM
  TGI: > 100 µM
CAKI-1 renal
  GI50: 3.47 µM
  TGI: 32.9 µM
HL-60(TB) leukemia
  GI50: > 100 µM
  TGI: > 100 µM
HCT-15 colon
  GI50: 19.4 µM
  TGI: > 100 µM
KM12 colon
  GI50: 2.44 µM
  TGI: 11.7 µM
ACHN renal
  GI50: 12.4 µM
  TGI: > 100 µM
EKVX NSCLC
  GI50: 22.2 µM
  TGI: > 100 µM
OVCAR-4 ovarian
  GI50: 28.2 µM
  TGI: 68.9 µM
SF-539 CNS
  GI50: 37 µM
  TGI: > 100 µM
786-0 renal
  GI50: 34.2 µM
  TGI: > 100 µM
MDA-MB-435
  GI50: 8.72 µM
  TGI: > 100 µM
SK-MEL-2 melanoma
  GI50: 27.7 µM
  TGI: > 100 µM
HCT-116 colon
  GI50: 17.4 µM
  TGI: 44.8 µM
U251 CNS
  GI50: 27.6 µM
  TGI: > 100 µM
HOP-62 NSCLC
  GI50: 14 µM
  TGI: 36.7 µM
